{"source": "patent US20070264646A1", "about": "“Hbv Particles Containing Hbv-Rna” (Advanced Life Science Institute, Inc., priority 2003, published 2007)", "key": {"[1]": {"tested_on": "HBV-DNA in the serum", "test": "Quantification of HBV-DNA in the serum by TaqMan PCR, patient under lamivudine treatment", "type": "in vivo", "conditions": "one month before administration 2.4 × 10^6", "method": "(§1) In order to isolate the HBV gene in Dane particles (the infective HBV particle: the complete HBV particle), the HBV gene in a serum from a HBV patient was purified using High Pure Viral Nucleic Acid kit (Roche Diagnostics) in the following method. One hundred μl of the serum from a HBV patient who received lamivudine treatment was mixed with 100 μl of the serum from a normal healthy subject to prepare 200 μl of a serum sample. To the serum sample, 200 μl of a working solution {50 μl of poly(A) carrier RNA (4 mg/ml) and 2.5 ml of the binding buffer [6 M guanidine-HCl, 10 mM urea, 10 mM Tris-HCl (pH 4.4), 20% Triton X-100 (v/v)]} and 50 μl of Proteinase K (18 mg/ml) were added and mixed, and incubated at 72° C. for 10 minutes.\n(§2) One hundred μl of isopropanol and the sample were mixed, and the mixture was transferred into a High Pure filter tube. It was centrifuged at 8000 rpm for 1 minute, and after discarding the flowthrough, 500 μl of the inhibitor removal buffer [5 M guanidine-HCl, 20 mM Tris-HCl (pH 6.6)] was injected and then centrifuged at 8000 rpm for 1 minute. After adding 450 μl of the washing buffer [20 mM NaCl, 2 mM Tris-HCl (pH 7.5)], it was centrifuged at 8000 rpm for 1 minute. Then it was washed again in 450 μl of the washing buffer and was centrifuged at 13000 rpm for 10 seconds. Fifty μl of sterile water was added to the filter tube, which was centrifuged at 8000 rpm for 1 minute, and the flowthrough was collected to prepare a solution of the HBV gene in the serum.\nThe quantification of HBV-DNA in the serum was performed by the TaqMan PCR method that employs the Light Cycler (Roche Diagnostics). […]\nThe condition included pretreatment at 95° C. for 10 minutes, DNA denaturation at 95° C. for 5 seconds, annealing at 60° C. for 15 seconds and DNA synthesis at 72° C. for 8 seconds, and fluorescence emitted from the TaqMan probe was measured to quantify the amount of HBV-DNA in the serum (Table 1)."}, "[2]": {"tested_on": "HBV-RNA in the serum", "test": "Amount of HBV-RNA in the serum, estimated by subtracting HBV-DNA from HBV gene", "type": "in vivo, HBV patient", "conditions": "one month before administration 5.4 × 10^6", "method": "In order to measure the amount of HBV gene in the serum, the step of the reverse transcriptase reaction was added. To 10 μl of the HBV gene solution, 1 μl of 20 mM dNTP Mix (10 mM dATP, 10 mM dGTP, 10 mM dCTP, 10 mM dTTP) and 0.2 μl of 10 μM HBS-R primer were mixed, and after incubated at 65° C. for 5 minutes, it was quickly cooled on ice. Four μl of 5× reverse transcription buffer [250 mM Tris-HCl (pH 8.3), 375 mM KCl, 15 mM MgCl2], 0.2 μl of 0.1 M DTT, 0.6 μl of RNase inhibitor (40 units/μl) and 3 μl of sterile water were mixed and then subjected to an annealing reaction at 42° C. for 2 minutes, to which 1 μl of the reverse transcriptase (200 units/μl) was added to prepare a 20 μl of a reaction mixture, which was subjected to a reverse transcription reaction at 42° C. for 50 minutes and the inactivation of the reverse transcriptase was performed at 70° C. for 15 minutes.\nBy applying 4 μl of this reaction mixture to the above HBV-DNA quantification system, the amount of the HBV gene in the serum, i.e. the total amount of HBV-DNA and RNA in the serum, can be measured. Also, by subtracting the amount of HBV-DNA from the amount of the HBV gene, the amount of HBV-RNA in the serum can be estimated (Table 1)."}, "[3]": {"tested_on": "HBV gene (HBV-DNA and RNA) in the serum", "test": "Quantification of the HBV gene (DNA+RNA) in the serum by reverse transcription plus TaqMan PCR", "type": "in vivo, HBV patient", "conditions": "one month before administration 7.8 × 10^6", "method": "as §1, §2\nIn order to measure the amount of HBV gene in the serum, the step of the reverse transcriptase reaction was added. To 10 μl of the HBV gene solution, 1 μl of 20 mM dNTP Mix (10 mM dATP, 10 mM dGTP, 10 mM dCTP, 10 mM dTTP) and 0.2 μl of 10 μM HBS-R primer were mixed, and after incubated at 65° C. for 5 minutes, it was quickly cooled on ice. […]\nBy applying 4 μl of this reaction mixture to the above HBV-DNA quantification system, the amount of the HBV gene in the serum, i.e. the total amount of HBV-DNA and RNA in the serum, can be measured. […]"}, "[4]": {"tested_on": "HBc antigen", "test": "Measurement of the amount of HBc antigen (sandwich immunoassay, luminescence)", "type": "in vivo, HBV patient", "conditions": "serum, before administration 610", "source_text": "Three monoclonal antibodies HB44 (recognition site: amino acids 31-49), HB61 (recognition site: amino acids 131-140) and HB114 (recognition site: amino acids 1-81) that react both HBc antigen and HBe antigen were coated and immobilized to a microtiter plate. After washing with PBS, it was blocked with a solution containing casein and, after removing the solution, it was dried.\nFifty μl of the pretreatment solution (15% sodium dodecyl sulfate [SDS], 3% CHAPS, 1% hexadecyltrimethyl ammonium bromide) was mixed with 100 μl of the sample (serum, plasma etc.) and treated at 70° C. for 30 minutes.\nTo each antibody-immobilized well, 100 μl of the reaction buffer (pH 8.0) and 50 μl of the pretreated sample were added, and the plate was reacted under gentle stirring at room temperature for 2 hours.\nAfter washing the wells, 100 μl of a solution containing alkaline phosphatase-labelled HB50 (recognition site: amino acids 168-176) monoclonal antibody was added to each well, and the plate was incubated at room temperature for 1 hour.\nAfter washing the wells, 100 μl of the CDP Star with Emerald II (Applied Biosystems) was added, and the intensity of luminescence after reacting at room temperature for 20 minutes was measured using a microtiter plate luminometer. It was compared to the intensity of luminescence of the standard antigen and the concentration of HBc antigen in the sample was calculated (Table 1)."}}}
{"smiles": "Nc1ccn([C@@H]2CS[C@H](CO)O2)c(=O)n1", "note": "[lamivudine]", "values": [{"measurement": "Amount of HBV-DNA", "setting": "[1]; 8 months after administration", "result": "1.0 × 10^2 copies/ml"}, {"measurement": "Amount of HBV-DNA", "setting": "[1]; 19 months after administration", "result": 0, "unit": "copies/ml"}, {"measurement": "Amount of HBV-DNA", "setting": "[1]; one month after administration of lamivudine", "result": "6.1×10^3 copies/ml"}, {"measurement": "Amount of HBV-RNA", "setting": "[2]; 8 months after administration", "result": "7.1 × 10^3 copies/ml"}, {"measurement": "Amount of HBV-RNA", "setting": "[2]; 19 months after administration", "result": "2.2 × 10^3 copies/ml"}, {"measurement": "Amount of HBV-RNA", "setting": "[2]; one month after administration", "result": "1.0×10^5 copies/ml"}, {"measurement": "Amount of HBV gene", "setting": "[3]; 8 months after administration", "result": "7.2 × 10^3 copies/ml"}, {"measurement": "Amount of HBV gene", "setting": "[3]; 19 months after administration", "result": "2.2 × 10^3 copies/ml"}, {"measurement": "Amount of HBV gene", "setting": "[3]; one month after administration", "result": "1.1 × 10^5 copies/ml"}, {"measurement": "Amount of HBc antigen", "setting": "[4]; 8 months after administration", "result": 21, "unit": "pg/mL"}, {"measurement": "Amount of HBc antigen", "setting": "[4]; 19 months after administration", "result": 20, "unit": "pg/mL"}, {"measurement": "Amount of HBc antigen", "setting": "[4]; one month after administration", "result": 56, "unit": "pg/mL"}]}
